Consider one molecule from patent US10190093B2, “Artificial oocyte activation” (The Curators of the University of Missouri, priority 2013, dated 2019).

For the experiment, the system named is SCNT embryos. The experiment can be described thus: TPEN activation method on the development of SCNT embryos. The format is cell-based, pig. Particulars: SCNT embryos activated with TPEN (200 μM, 30 min) as major activating reagent. The protocol:
At the end of the culture, where applicable, the frequency of cleaved embryos and blastocysts, and total cell number in the blastocysts were recorded. Hoechst 33342 (1.2 mg/mL) was used to stain nuclei and the embryos were then evaluated by epi-fluorescence microscopy. Additionally, the effect of the TPEN activation method alone on the development of SCNT embryos was tested.

Take `c1ccc(CN(CCN(Cc2ccccn2)Cc2ccccn2)Cc2ccccn2)nc1` [TPEN, N,N,N′,N′-tetrakis(2-pyridylmethyl)ethane-1,2-diamine]: the “Day 6 blastocyst formation” value was 25.8% (8/31) and the “Day 7 blastocyst formation” value is 35.5% (11/31).
